{
  "source": "patent US20240293304A1",
  "about": "“SULFONATE-FUNCTIONALIZED ALKYL POLYGLUCOSIDES AS SULFATE-FREE SURFACTANTS FOR TOOTHPASTE AND MOUTHWASH” (Colonial Chemical, Inc., priority 2021, published 2024)",
  "key": {"[1]": {"test_system": "gingival tissues (MatTek EpiGingival)", "experiment": "MatTek EpiGingival in vitro gingival irritation potential", "format": "cell-based", "conditions": "2% SLS", "from_the_text": "Suga®Nate 160NC has been tested for its oral and gingival irritation potential in vitro (MatTek EpiOral™ & EpiGingival™). […] Taken together, the results reveal that Suga®Nate 160NC, even as a neat product, is less irritating to oral and gingival tissues than 2% SLS."}, "[2]": {"test_system": "In vitro epidermal keratinocytes", "format": "cell-based"}},
  "data": [
    {"molecule": "CCCCCCCCCCCCOS(=O)(=O)[O-].[Na+]", "note": "[SLS]", "values": [
      {"measurement": "ET-50", "setting": "[1]", "result": 418.2, "unit": "min"},
      {"measurement": "gingival irritation", "setting": "[1]", "result": "resulted in gingival irritation"}
    ]},
    {"molecule": "sorbitan oleate decylglucoside crosspolymer [Poly Suga®Mulse D9]", "values": [
      {"measurement": "eye irritation classification", "setting": "[2]", "result": "non-irritating"}
    ]},
    {"molecule": "sodium hydroxypropylsulfonate laurylglucoside crosspolymer [Poly Suga®Nate 160P NC]", "values": [
      {"measurement": "ET-50", "setting": "[2]", "result": "≥ 256", "unit": "min"},
      {"measurement": "eye irritation classification", "setting": "[2]", "result": "non-irritating"}
    ]}
  ]
}
